Data: PMC4319890, “UFSRAT: Ultra-Fast Shape Recognition with Atom Types –The Discovery of Novel Bioactive Small Molecular Scaffolds for FKBP12 and 11βHSD1” (PLoS ONE, 2015)

Columns and labels:
[1] = target: T1, HEK-293 cells transfected with human 11β-HSD1 (Homo sapiens, UniProt P28845); assay: Scintillation proximity assay (SPA), inhibition of 11β-HSD1 reductase activity in cells; assay type: cell-based; conditions: for IC50: conversion of cortisone to cortisol, 40 nM [3H]-cortisone, 1% DMSO
T1 construct: HEK-293 cells stably transfected with the full length human hsd11b1 gene; expressed in transfected cells; host or cells: HEK-293
Description: Testing for inhibition of 11β-HSD1 reductase activity in cells. Candidate compounds were tested for inhibition of the conversion of cortisone to cortisol by 11β-HSD1 expressed in HEK-293 cells stably transfected with the full length human hsd11b1 gene as previously described. An established scintillation proximity assay (SPA) was carried out in a 96-well plate format, with appropriate controls. Experiments were set up in triplicate with 8 inhibitor concentration points per compound, spanning 3.5 orders of magnitude. Final solution conditions: 40 nM [^3H]-cortisone; 50 mM Tris pH 8.0, 50 mM NaCl; 1% DMSO. The anti-cortisol antibody was purchased from HyTest, Finland; radiometric quantification was carried out on a Perkin Elmer TopCount instrument. The percentage inhibition was determined relative to a non-inhibited control and the IC50 determined from a plot of percentage inhibition against compound concentration. Data were fitted global nonlinear regression using Kaleidagraph V4.0 (Synergy Software).

recombinant h11β-HSD1 = target: T2, recombinant h11β-HSD1 (Homo sapiens, UniProt P28845); assay: Fluorescence assay, inhibition of 11β-HSD1 dehydrogenase activity; assay type: biochemical; conditions: conversion of cortisol to cortisone; 1 μM 11β-HSD1, 200 μM cortisol, 500 μM NADP, pH 7.7, 25°C; read-out: Fluoresc. Ki^app
T2 construct: made in house
Description: Testing for inhibition of 11β-HSD1 dehydrogenase activity. Candidate compounds were tested for inhibition of the conversion of cortisol to cortisone by recombinant h11β-HSD1. The dehydrogenation of cortisol is accompanied by the reduction of NADP^+ to NADPH; this was followed spectrophotometrically and scaled to a NADPH calibration curve. The excitation and emission wavelengths were 340 and 458 nm. (SpectraMax M5, Molecular Devices). The experimental conditions were 500 μM NADP, 1 μM 11β-HSD1, 200 μM cortisol 50 mM Tris, pH 7.7, 50 mM NaCl; 25°C. Reactions were carried out in sextuplicate. Ki ^app were derived from a fit of the rate of the reaction as a function of inhibitor concentration; Kaleidagraph, V4.0 [43]

Recombinant human FKBP12 [2] = target: T3, Recombinant human FKBP12 (Homo sapiens, UniProt P62942); assay: Thermal denaturation fluorescence (TDF) binding assay
T3 construct: made in house
Description: Thermal denaturation fluorescence (TDF). A fluorescence based thermal denaturation assay was used to detect binding to FKBP12 essentially as described in the study of Lo [38]. Final conditions were: 50 mM ammonium acetate, pH 7.0; 10 μM FKBP12; 250 μM screening compound and 5x SYPRO orange dye (Invitrogen). […] Protein was melted over the temperature range 20 to 80°C; 0.5°C increment, 30s hold. Compounds were screened for fluorescence in the absence of protein; all samples were solvent matched and repeated in triplicate on 3 separate experiments. Apparent equilibrium dissociation constants (Kd ^app) for the interaction between the protein and ligands were calculated from the change in mid-point melting temperature of the protein (Tm) on addition of ligand and transformed to 25°C using a benchmark value for the enthalpy of ligand binding of -5 kcal∙mol^-1 [39].

Recombinant human FKBP12 [3] = target: T3, Recombinant human FKBP12; assay: Electrospray ionization mass spectrometry (ESI-MS) binding assay; conditions: 50°C; 100 μM ligand, 5 μM FKBP12, 10% methanol, pH 6.8; read-out: ESI-MS Kd^app
Description: Electrospray ionization mass spectrometry. Electrospray-ionization mass spectrometry (ESI-MS) was used to detect binding to FKBP12. Data was collected on a LCQ^TMDECA ion-trap instrument (ThermoQuest) run in the positive ion mode. The analyte was introduced by direct infusion and the following operating parameters were employed: nitrogen flow 100units, analyte flow 6 μl∙min^-1, capillary voltage 3.5 kV, cone voltage 25 V and capillary temperature 50°C. Spectrum were averaged over 300 scans (2s/ scan) and processed using the Bioworks Browser V 3.0 software package and ProMass 2.5 (ThermoScientific). The analyte solution consisted of 100 μM ligand, 5 μM FKBP12 in 10% methanol (v/v), 10 mM ammonium acetate, pH 6.8 incubated for 10 minutes at room temperature. Kd ^app for the interaction between the protein and ligand were calculated from the ratio of the intensity of the ion signal from free protein and protein in complex with ligand using the method of Tjernberg.

FKBP12 = target: FKBP12; design: method as in PMID 18038971; conditions: 27°C printed for Q2; cited from earlier work
11β-HSD1 = tested on: 11β-HSD1; design: method as in PMID 16087724; conditions: Figure 5 legend; cited from earlier work
[4] = at the mid-point melting temperature Tm, 10 μM FKBP12, 250 μM compound, pH 7.0, read-out: TDF Kd^app at Tm
[5] = value in brackets, transformed to 25°C using a benchmark enthalpy of ligand binding of -5 kcal/mol, read-out: TDF Kd^app (transformed 25°C) (converted)

T3 sequence (P62942 whole entry): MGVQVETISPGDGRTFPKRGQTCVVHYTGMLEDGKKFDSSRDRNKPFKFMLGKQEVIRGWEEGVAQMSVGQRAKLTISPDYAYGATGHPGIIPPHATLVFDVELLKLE
T1 sequence (P28845 whole entry): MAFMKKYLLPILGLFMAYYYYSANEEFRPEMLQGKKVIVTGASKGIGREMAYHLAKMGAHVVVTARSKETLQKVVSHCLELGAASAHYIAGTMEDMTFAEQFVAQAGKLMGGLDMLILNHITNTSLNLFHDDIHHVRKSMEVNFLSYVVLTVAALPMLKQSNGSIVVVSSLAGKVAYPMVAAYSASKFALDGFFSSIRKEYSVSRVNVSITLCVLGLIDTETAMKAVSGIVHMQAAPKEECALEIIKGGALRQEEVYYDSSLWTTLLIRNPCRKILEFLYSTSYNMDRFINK
T2 sequence (P28845 whole entry): as above

Ki (recombinant h11β-HSD1) [µM]	Kd (Recombinant human FKBP12 [2]; [4]) [µM]	Kd (Recombinant human FKBP12 [2]; [5]) [µM]	Kd (Recombinant human FKBP12 [3]) [µM]	Compound	other results
26 ± 7				COc1ccc(C(=O)CSc2ccccn2)cc1 [Compound 8, 1-(4-methoxyphenyl)-2-(2-pyridylsulfanyl)ethanone]	IC50 [1]: 0.067 ± 0.003 µM; affinity IC50 in a cell based assay (in words) ([1]; discussion): low nanomolar
	28 ± 8	6	197 ± 74	Cc1ccc(SCC(=O)N2CCOCC2)cc1 [Compound Q2, 1-morpholino-2-(p-tolylsulfanyl)ethanone, reference compound]	Kd (FKBP12): 15 µM
47 ± 13				Dihydroxyphenyl)-2-oxoethyl]sulfanyl}-1H-tetrazol-1-yl)benzamide [Compound 6]	
248 ± 73				COc1ccc2[nH]c(SCC(=O)c3ccc(O)c(O)c3)nc2c1 [Compound 7, 1-(3,4-dihydroxyphenyl)-2-[(6-methoxy-1H-benzimidazol-2-yl)sulfanyl]ethanone]	IC50 [1]: 7.9 ± 3 µM

Further lines, the compound ahead of its results:

Compound	Ki (recombinant h11β-HSD1) [µM]	Kd (Recombinant human FKBP12 [2]; [4]) [µM]	Kd (Recombinant human FKBP12 [2]; [5]) [µM]	Kd (Recombinant human FKBP12 [3]) [µM]	other results
COc1ccc(/C=C/C(=O)/C=C/c2ccc(OC)c(OC)c2)cc1OC [Compound 5, (1E,4E)-1,5-bis(3,4-dimethoxyphenyl)penta-1,4-dien-3-one]	142 ± 66				IC50 [1]: 11.3 ± 2.6 µM
O=C(NCC(O)c1ccccc1)c1cccc(Cl)c1 (centres unmarked) [Compound 3, 3-chloro-N-(2-hydroxy-2-phenyl-ethyl)benzamide]		568 ± 84	263	383 ± 52	
Cc1ccc(S(=O)(=O)CC(=O)N2CCOCC2)cc1 [Compound Q3, 2-[(4-methylbenzene)-sulfonyl]-1-(morpholin-4-yl)ethan-1-one]					Kd (FKBP12): 95 µM
CC1(C)[C@@H](OC(=O)CCC(=O)O)CC[C@]2(C)[C@H]3C(=O)C=C4[C@@H]5C[C@@](C)(C(=O)O)CC[C@]5(C)CC[C@@]4(C)[C@]3(C)CC[C@@H]12 [Carbenoxolone]					inhibitor of 11β-HSD1 (potency, type not given) (11β-HSD1): 20 nM
O=C(CNC(=O)c1ccccc1C(=O)O)c1ccccc1 [Compound 1, 2-(phenacylcarbamoyl)benzoic acid]		548 ± 38	252	313 ± 30	
CC(=O)Nc1ccccc1NC(=O)CCc1ccccc1 [Compound 4, N-(2-acetamidophenyl)-3-phenyl-propanamide]		648 ± 88	303	281 ± 42	
CC(NC(=O)c1ccccc1)C(O)c1ccccc1 (centres unmarked) [Compound 2, N-(2-hydroxy-1-methyl-2-phenyl-ethyl)benzamide]		575 ± 70	266	399 ± 45	
